Test results reported in patent US20220056019A1, “FARNESOID X RECEPTOR AGONISTS AND USES THEREOF” (Metacrine, Inc., priority 2018, published 2022).

Target: T1, hFXR (Homo sapiens, UniProt Q96RI1)
T1 construct: expressed in transfected cells; host or cells: CV-1 cells
T1 sequence (Q96RI1 1-486): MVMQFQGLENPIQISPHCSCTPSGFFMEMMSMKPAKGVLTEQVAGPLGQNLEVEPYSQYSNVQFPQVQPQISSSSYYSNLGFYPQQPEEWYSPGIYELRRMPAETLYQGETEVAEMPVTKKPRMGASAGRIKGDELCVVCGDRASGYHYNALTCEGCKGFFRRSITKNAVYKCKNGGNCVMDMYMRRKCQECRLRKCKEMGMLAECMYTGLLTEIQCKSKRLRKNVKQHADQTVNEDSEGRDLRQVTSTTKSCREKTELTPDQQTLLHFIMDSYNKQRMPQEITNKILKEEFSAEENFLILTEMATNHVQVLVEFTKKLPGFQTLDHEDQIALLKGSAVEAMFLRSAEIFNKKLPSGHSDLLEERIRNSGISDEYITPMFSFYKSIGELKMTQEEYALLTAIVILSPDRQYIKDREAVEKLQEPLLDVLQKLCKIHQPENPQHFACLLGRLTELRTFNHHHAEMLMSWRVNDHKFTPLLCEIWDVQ
T1 sequence (P19793 1-462 partner): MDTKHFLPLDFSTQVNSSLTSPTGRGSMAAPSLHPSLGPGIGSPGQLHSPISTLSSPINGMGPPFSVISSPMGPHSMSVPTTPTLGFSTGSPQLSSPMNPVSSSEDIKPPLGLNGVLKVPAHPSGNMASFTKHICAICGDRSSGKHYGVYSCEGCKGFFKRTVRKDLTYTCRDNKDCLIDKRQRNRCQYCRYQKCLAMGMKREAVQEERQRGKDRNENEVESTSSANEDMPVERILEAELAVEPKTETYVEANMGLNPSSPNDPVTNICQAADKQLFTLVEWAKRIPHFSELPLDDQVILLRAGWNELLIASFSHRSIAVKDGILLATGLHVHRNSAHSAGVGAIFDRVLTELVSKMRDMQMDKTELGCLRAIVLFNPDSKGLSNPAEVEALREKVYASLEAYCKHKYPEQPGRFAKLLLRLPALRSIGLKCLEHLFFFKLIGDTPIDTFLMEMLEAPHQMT
Assay: In Vitro FXR Assay (TK): TK-ECRE-luc reporter in transfected CV-1 cells
Format: cell-based
Conditions: 18 hrs incubation, luminescence
Outline: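 Reporter gene assay: CV-1 cells co-expressing hFXR, hRXR, TK-ECRE-luc and pCMX-YFP after overnight transfection in charcoal-stripped serum. Treatment with serially diluted compounds lasted 18 hrs at 37 °C, followed by cell lysis and a luminescence measurement.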

| Structure (SMILES) | EC50 |
| --- | --- |
| COc1ccc([C@H]2CC[C@H](CN(c3cccc(-c4cnn(C(C)C)c4)c3)C(=O)[C@H]3CC[C@H](NC(=O)OCCO)CC3)CC2)cc1C [Compound 6.03, 2-Hydroxyethyl (trans-4-((3-(1-isopropyl-1H-pyrazol-4-yl)phenyl)((trans-4-(4-methoxy-3-methylphenyl)cyclohexyl)meth-yl)carbamoyl)cyclohexyl)carbamate] | ≤ 50 nM |
| COc1ccc([C@H]2CC[C@H](CN(c3cc(-c4cnc(C(C)C)s4)ccn3)C(=O)[C@H]3CC[C@H](OC(=O)N4CCN(C)CC4)CC3)CC2)cc1C [Compound 2.40, trans-4-((4-(2-Isopropylthiazol-5-yl)pyridin-2-yl)((trans-4-(4-methoxy-3-methylphenyl)cyclohexyl)methyl)carbamoyl)cyclohexyl 4-methylpiperazine-1-carboxylate] | ≤ 50 nM |
| COc1ccc([C@H]2CC[C@H](CN(c3cc(-c4coc(C(C)C)n4)ccn3)C(=O)[C@H]3CC[C@H](OC(=O)NC(C)C)CC3)CC2)cc1C [Compound 2.44, trans-4-((4-(2-Isopropyloxazol-4-yl)pyridin-2-yl)(((trans)-4-(4-methoxy-3-methylphenyl)cyclohexyl)methyl)carbamoyl) cyclohexyl isopropylcarbamate] | ≤ 50 nM |
| COCC(=O)N[C@H]1CC[C@H](C(=O)N(CC23CCC(c4ccc(OC)c(C)c4)(CC2)CC3)c2cc(-c3cnn(C(C)C)c3)ccn2)CC1 [Compound 9.01, trans-N-(4-(1-Isopropyl-1H-pyrazol-4-yl)pyridin-2-yl)-N-((4-(4-methoxy-3-methylphenyl)bicyclo[2.2.2]octan-1-yl)methyl)-4-(2-methoxyacetamido)cyclohexanecar-boxamide] | ≤ 50 nM |
| COc1ccc([C@H]2CC[C@H](CN(c3cccc(-c4coc(C5CC5)n4)c3)C(=O)[C@H]3CC[C@H](CO)CC3)CC2)nc1C [Compound 20, trans-N-(3-(2-Cyclopropyloxazol-4-yl)phenyl)-4-(hydroxymethyl)-N-((trans-4-(5-methoxy-6-methylpyridin-2-yl)cyclohexyl)methyl)cyclohexanecar-boxamide] | ≤ 50 nM |
| COc1ccc(C23CCC(CN(c4cc(-c5coc(C(C)C)n5)ccn4)C(=O)[C@H]4CC[C@H](OC(=O)N5CC(CO)C5)CC4)(CC2)CC3)cc1C [Compound 23.01, 4-((4-(2-Isopropyloxazol-4-yl)pyridin-2-yl)((4-(4-methoxy-3-methylphenyl)bicyclo[2.2.2]octan-1-yl)methyl)carbamoyl)(trans-cyclohexyl) 3-(hydroxymethyl)azetidine-1-carboxylate] | ≤ 50 nM |
| COc1ccc([C@H]2CC[C@H](CN(c3cc(-c4cnc(C5CC5)s4)ccn3)C(=O)[C@H]3CC[C@H](OC(=O)NC(C)C)CC3)CC2)cc1C [Compound 2.45, trans-4-((4-(2-Cyclopropylthiazol-5-yl)pyridin-2-yl)(((trans)-4-(4-methoxy-3-methylphenyl)cyclohexyl)methyl)carbamoyl)cyclohexyl isopropylcarbamate] | ≤ 50 nM |
| COc1ccc(C23CCC(CN(c4cc(-c5cnn(C6(C)CCC6)c5)ccn4)C(=O)[C@H]4CC[C@H](OC(=O)N5CC(O)C5)CC4)(CC2)CC3)cc1C [Compound 24, 4-(((4-(4-Methoxy-3-methylphenyl)bicyclo[2.2.2]octan-1-yl)methyl)(4-(1-(1-methylcyclobutyl)-1H-pyrazol-4-yl)pyridin-2-yl)carbamoyl)cyclohexyl trans-3-hydroxyazetidine-1-carboxylate] | ≤ 50 nM |
| COc1ccc(C23CCC(CN(c4cc(-c5cnn(C(C)C)c5)ccn4)C(=O)[C@H]4CC[C@H](OC(=O)N5CC(CCO)C5)CC4)(CC2)CC3)cc1C [Compound 4.43, 4-((4-(1-Isopropyl-1H-pyrazol-4-yl)pyridin-2-yl) ((4-(4-methoxy-3-methylphenyl)bicyclo [2.2.2]octan-1-yl)methyl)carbamoyl)cyclohexyl trans-3-(2-hydroxyethyl) azetidine-1-carboxylate] | ≤ 50 nM |
| COc1ccc(C23CCC(CN(c4cc(-c5cc(C6CC6)on5)ccn4)C(=O)[C@H]4CC[C@H](OC(=O)N5CC(O)C5)CC4)(CC2)CC3)cc1C [Compound 4.26, 4-((4-(5-Cyclopropylisoxazol-3-yl)pyridin-2-yl)((4-(4-methoxy-3-methylphenyl)bicyclo[2.2.2]octan-1-yl)methyl)carbamoyl) cyclohexyl 3-hydroxyazetidine-trans-1-carboxylate] | ≤ 50 nM |
| CCn1cc(-c2ccnc(N(C[C@H]3CC[C@H](c4ccc(OC)c(C)c4)CC3)C(=O)[C@H]3CC[C@H](OC(=O)N4CC(O)C4)CC3)c2)cn1 [Compound 2.22, trans-4-((4-(1-Ethyl-1H-pyrazol-4-yl)pyridin-2-yl) ((trans-4-(4-methoxy-3-methylphenyl)cyclohexyl)methyl)carbamoyl) cyclohexyl3-hydroxyazetidine-1-carboxylate] | ≤ 50 nM |
| COc1ccc([C@H]2CC[C@H](CN(c3cccc(-n4cnc(C5CC5)n4)c3)C(=O)[C@H]3CC[C@H](OC(=O)N4CC(O)C4)CC3)CC2)cc1C [Compound 5, trans-4-((3-(3-Cyclopropyl-1H-1,2,4-triazol-1-yl)phenyl)((trans-4-(4-methoxy-3-methylphenyl)cyclohexyl)methyl)carbamoyl)cyclohexyl 3-hydroxyazetidine-1-carboxylate] | ≤ 50 nM |
| COc1ccc([C@H]2CC[C@H](CN(c3cc(-c4cnn(C(C)C)c4)ccn3)C(=O)[C@H]3CC[C@H](OC(=O)NCC(C)(C)O)CC3)CC2)cc1C [Compound 2.04, trans-4-((4-(1-Isopropyl-1H-pyrazol-4-yl)pyridin-2-yl) ((trans-4-(4-methoxy-3-methylphenyl)cyclohexyl)methyl)carbamoyl) cyclohexyl(2-hydroxy-2-methylpropyl)carbamate] | ≤ 50 nM |
| COc1ccc(C23CCC(CN(c4cc(-c5cnn(C(C)C)c5)c(F)cn4)C(=O)[C@H]4CC[C@H](OC(=O)N5CC(CO)C5)CC4)(CC2)CC3)cc1C [Compound 25.06, 4-((5-Fluoro-4-(1-isopropyl-1H-pyrazol-4-yl)pyridin-2-yl)((4-(4-methoxy-3-methylphenyl)bicyclo[2.2.2]octan-1-yl)methyl)carbamoyl)cyclohexyl trans-3-(hydroxymethyl)azetidine-1-carboxylate] | ≤ 50 nM |
| CS(=O)(=O)c1ccc([C@H]2CC[C@H](CN(c3cccc(-c4cnc(C5CC5)s4)c3)C(=O)[C@H]3CC[C@H](OC(=O)N4CC(O)C4)CC3)CC2)cc1 [Compound 5.15, trans-4-((3-(2-Cyclopropylthiazol-5-yl)phenyl)((trans-4-(4-(methylsulfonyl)phenyl)cyclohexyl)methyl)carbamoyl)cyclohexyl 3-hydroxyazetidine-1-carboxylate] | 50 to 1000 nM |
| COc1ncc([C@H]2CC[C@H](CN(c3cc(-c4coc(C5CC5)n4)ccn3)C(=O)[C@H]3CC[C@H](OC(=O)N4CC(N(C)C)C4)CC3)CC2)cc1Cl [Compound 1.06, trans-4-((((trans)-4-(5-Chloro-6-methoxypyridin-3-yl)cyclohexyl)methyl)(4-(2-cyclopropyloxazol-4-yl)pyridin-2-yl)carbamoyl)cyclohexyl 3-(dimethylamino)azetidine-1-carboxylate] | ≤ 50 nM |
| COc1ccc([C@H]2CC[C@H](CN(c3cc(-c4cnc(C5CC5)s4)ccn3)C(=O)[C@H]3CC[C@H](OC(=O)N4CCN(C)CC4)CC3)CC2)cc1Cl [Compound 2.08, trans-4-(((trans-4-(3-Chloro-4-methoxyphenyl)cyclohexyl)methyl)(4-(2-cyclopropylthiazol-5-yl)pyridin-2-yl)carbamoyl)cyclohexyl 4-methylpiperazine-1-carboxylate] | ≤ 50 nM |
| COc1ccc([C@H]2CC[C@H](CN(c3cccc(-c4cnn(C(C)C)c4)c3)C(=O)[C@H]3CC[C@H](OC(=O)NCC(C)(F)F)CC3)CC2)cc1C [Compound 5.06, trans-4-((3-(1-Isopropyl-1H-pyrazol-4-yl)phenyl)(((trans)-4-(4-methoxy-3-methylphenyl)cyclohexyl)methyl)carbamoyl)cyclohexyl (2,2-difluoropropyl)carbamate] | ≤ 50 nM |
| COCC(=O)N[C@H]1CC[C@H](C(=O)N(CC23CCC(c4ccc(OC)c(C)c4)(CC2)CC3)c2cc(-c3coc(C4CC4)n3)ccn2)CC1 [Compound 9.10, (trans)-N-(4-(2-Cyclopropyloxazol-4-yl)pyridin-2-yl)-N-((4-(4-methoxy-3-methylphenyl)bicyclo[2.2.2]octan-1-yl)methyl)-4-(2-methoxyacetamido)cyclohexanecar-boxamide] | ≤ 50 nM |
